Reference: US4312867A, “Antibacterial compounds, processes for their preparation and compositions containing them” (Beecham Group Limited, priority 1979, dated 1982)
Values after ≈ are worked out from the molar mass of the structure shown.

Columns and labels:
M. dispar NCTC 10125 = test: anti-mycoplasmal MIC, Friis broth solidified with agarose (Table 4); format: cell-based; conditions: 144 h, 6 days at 37° C.
Protocol: The values were determined in Friis broth solidifed with 0.9% agarose. The inoculum was 10^3 to 10^5 CFV and the MIC's were recorded after 6 days incubation at 37° C.

[1] = Mean serum concentrations in neonatal piglets after intramuscular or oral administration; format: in vivo; conditions: pig, 50 mg/kg
Protocol: (f) Mean serum concentrations in neonatal piglets after intramuscular or oral administration at 50 mg/kg of 6-sulphamoylhexyl monate A
Blood levels were assessed in neonatal piglets (2 to 4 animals per group and mean bodyweights about 2 kg). The dose was 50 mg/kg (dose solution=25 mg/ml in 25% ethanol). Doses were given by intramuscular injection and orally by stomach tube. Piglets were bled at intervals up to 6 and at 24 hours, and serum assayed microbiologically (B. subtilis ATCC 6633).

SMILES: C/C(=C\C(=O)OC(C)CCCCCS(N)(=O)=O)CC1OCC(CC2OC2C(C)C(C)O)C(O)C1O (centres unmarked) [Example 5, 7-Sulphamoylhept-2-yl monate A]
- MIC (M. dispar NCTC 10125): 100 µg/mL (≈ 192 µM)

SMILES: C/C(=C\C(=O)OCCCCCCS(N)(=O)=O)CC1OCC(CC2OC2C(C)C(C)O)C(O)C1O (centres unmarked) [Example 2, 6-Sulphamoylhexyl monate A]
- concentration at 10 min ([1]; im): 31400 ng/mL
- concentration at 20 min ([1]; im): 31200 ng/mL
- concentration at 40 min ([1]; im): 23700 ng/mL
- concentration at 1 h ([1]; im): 17300 ng/mL
- concentration at 2 h ([1]; im): 9200 ng/mL
- concentration at 3 h ([1]; im): 3200 ng/mL
- concentration at 4 h ([1]; im): 1020 ng/mL
- concentration at 5 h ([1]; im): < 600 ng/mL
- concentration at 10 min ([1]; po): 5900 ng/mL
- concentration at 20 min ([1]; po): 8300 ng/mL
- concentration at 40 min ([1]; po): 8600 ng/mL
- concentration at 1 h ([1]; po): 5900 ng/mL
- concentration at 2 h ([1]; po): 1800 ng/mL
- concentration at 3 h ([1]; po): 1500 ng/mL
- concentration at 4 h ([1]; po): 740 ng/mL
- concentration at 5 h ([1]; po): < 510 ng/mL
